What was measured:
Assay type in all cases: in vivo
[1] = system: Acarapis woodi (trachea mites); test: Efficacy against Acarapis woodi parasites, contact with treated glass slides; settings: slides dipped in 500 ppm acetone solution
Method: In this evaluation, honeybees (Apis mellifera) which are infested with Acarapis woodi (trachea mites) are dissected to remove the infested tracheae. Glass microscope slides are dipped into acetone solutions of tebufenpyrad (500 ppm)and the acetone is allowed to evaporate. Infested tracheae are placed directly on the treated slides. The mites are removed from the tracheae by dissection and forced to walk across the treated area. The elapsed time is recorded for 100% mortality, i.e. no movement is observed upon agitation.

[2] = system: Varroa jacobsoni; test: Field evaluation against Varroa jacobsoni in infested beehives, stickyboard mite count; settings: two strips with 18% tebufenpyrad in 60:40 beeswax:lard, count taken 24 hours after treatment
From the text: In this evaluation, two Varroa jacobsoni infested beehives are monitored for the extent of infestation using stickyboards inserted at the bottom of the hive. Data are presented as the number of mites trapped on the stickyboard per day. Two strips (2.5 x 17cm) containing 18% tebufenpyrad dissolved in a 60:40 beeswax:lard (Crisco®) mixture are inserted into each hive brood chamber as per standard practice. One day after treatment, the stickyboards are removed and the dead mites counted.

[3] = system: Varroa jacobsoni (Varroa mites); test: Efficacy against Varroa jacobsoni parasites on topically treated infested honeybees; settings: 1 µl acetone droplet on dorsal abdomen of bee, 5 days at 31°C
Method: (§1) In this evaluation, honeybees (Apis mellifera) taken from hives which are 70-90% infested with Varroa jacobsoni (Varroa mites) are chilled to immobilize the bees. A 1 µl droplet of an acetone solution of tebufenpyrad is applied to the dorsal abdomen of each bee. Control bees receive 1 µl droplet of acetone. A total of 50-52 bees are treated for each dose rate tested. Treatment dose rates are based upon the LD50 (dose rate required to obtain 50% mortality of healthy uninfected bees) of tebufenypyrad and are set at 10% of the LD50 and subsequent 10-fold dilution thereof. The treated bees are placed in an incubator at 31°C in the dark and fed 50% sugar water ad libitum for 5 days. After incubation, the bees are examined for mortality and mite infestation. The results are shown in Table I below, as % mortality of the total of the bees and the total of the mites.

[4] = system: honeybees (Apis mellifera); test: Mortality of topically treated honeybees in the Varroa jacobsoni evaluation; settings: 1 µl acetone droplet on dorsal abdomen, 5 days at 31°C
Method: as §1

## CCc1nn(C)c(C(=O)NCc2ccc(C(C)(C)C)cc2)c1Cl [Tebufenpyrad, N-(4-t-butylbenzyl)-4-chloro-3-ethyl-1-methylpyrazole-5-carboxamide]
[1]; Rep. 1, 7 mites
  Time required in minutes to achieve 100% mortality: 8.5 min
[1]; Rep. 2, 10 mites
  Time required in minutes to achieve 100% mortality: 8 min
[1]; Rep. 3, 7 mites
  Time required in minutes to achieve 100% mortality: 8 min
[2]; Hive 1, pretreatment 101 mites/day
  Treatment mites/day: 1777 mites/day
[2]; Hive 2, pretreatment 66 mites/day
  Treatment mites/day: 1080 mites/day
[3]; dose 0.006 µg/bee
  % Mortality Parasites: 58%
[3]; dose 0.06 µg/bee
  % Mortality Parasites: 44%
[3]; dose 0.6 µg/bee
  % Mortality Parasites: 92%
[4]; dose 0.006 µg/bee
  % Mortality Bees: 24%
[4]; dose 0.06 µg/bee
  % Mortality Bees: 25%
[4]; dose 0.6 µg/bee
  % Mortality Bees: 28%

Reference: patent publication EP0972448A2, “Parasitic mite control on beneficial insects” (American Cyanamid Company, priority 1998, dated 2000)
